The term IC50 denotes the midpoint of a concentration-inhibition curve.

Chain of recombinant MPTPB enzyme (I6WXK4 whole entry, looked up, the tested form may be a part): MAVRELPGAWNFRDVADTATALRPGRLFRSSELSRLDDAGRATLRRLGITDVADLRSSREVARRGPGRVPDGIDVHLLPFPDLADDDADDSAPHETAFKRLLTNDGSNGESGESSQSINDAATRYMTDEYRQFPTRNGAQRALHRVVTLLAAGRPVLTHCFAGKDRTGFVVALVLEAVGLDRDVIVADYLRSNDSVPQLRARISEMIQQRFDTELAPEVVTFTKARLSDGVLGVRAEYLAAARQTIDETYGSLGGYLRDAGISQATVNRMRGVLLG

In the assay the target is recombinant MPTPB enzyme (Mycobacterium tuberculosis, UniProt I6WXK4). The experiment in a line: MPTPB enzymatic assay (DiFMUP substrate, fluorescence). Format: biochemical. To be noted: recombinant MPTPB 50 ng/ml, pH 6.6, 45 minutes at room temperature. How it is done: The compounds of the inventions have been tested in the following enzymatic assay:
Five μl of diluted compound or vehicle (100% DMSO) was distributed to a 96 well plate. 55 μl of DiFMUP 72.7 μM diluted in MPTPB buffer (20 mM Bis Tris HCl pH 6.6, 0.1% Brij 35, 1 mM DL-Dithiothreitol) was added, followed by 40 μl of recombinant MPTPB enzyme (50 ng/ml) diluted in MPTPB buffer in order to start the reaction. After 45 minutes incubation at room temperature fluorescence intensity was measured on a Perkin-Elmer Fusion spectrofluorimeter (excitation at 355 nm, emission at 460 nm, for 0.2 s).
Examples of inhibitory activities for compounds of the invention are set out in Table I below.
In the case of `CCCCCCCCCCCCNS(=O)(=O)c1ccc(CN(Cc2ccccc2F)C(=O)C(=O)O)s1` [Example 6, [({5-[(dodecylamino)sulfonyl]-2-thienyl}methyl)(2-fluorobenzyl)amino]-(oxo)acetic acid], the IC50 is 0.74 µM.
The figure for `O=C(O)C(=O)N(Cc1cccc(Cl)c1)Cc1ccc(S(=O)(=O)NCCC(c2ccccc2)c2ccccc2)s1` [Example 14, {(3-chlorobenzyl) [(5-{[(3,3-diphenylpropyl)amino]sulfonyl}-2-thienyl)-methyl]amino}(oxo)acetic acid] is 0.79 µM; for `CC(CNS(=O)(=O)c1ccc(CN(Cc2cccc(Cl)c2)C(=O)C(=O)O)s1)c1ccc(Cl)cc1` (stereo not drawn) [Example 24, ((3-chlorobenzyl){[5-({[2-(4-chlorophenyl)propyl]amino}sulfonyl)-2-thienyl]methyl}amino)(oxo)acetic acid] it is 0.77 µM.

The values are drawn from patent US20090018169A1, “Sulfonamide Derivatives for the Treatment of Bacterial Infections” (Laboratoires Serono SA, priority 2006, published 2009).
